From PMC6094957, “BdorOR88a Modulates the Responsiveness to Methyl Eugenol in Mature Males of Bactrocera dorsalis (Hendel)” (Frontiers in Physiology, 2018) come the findings set out here.

Assay [1] concerns the target T1, BdorOR88a/BdorOrco (Bactrocera dorsalis, UniProt A0A0G2UKI5).
T1 construct: gene OR88a; full-length OR88a (1,245 nt, 414 aa) co-expressed with BdorOrco from pCS2+ cRNAs in Xenopus laevis oocytes; with Odorant receptor coreceptor
T1 sequence (A0A0G2UKI5 1-414): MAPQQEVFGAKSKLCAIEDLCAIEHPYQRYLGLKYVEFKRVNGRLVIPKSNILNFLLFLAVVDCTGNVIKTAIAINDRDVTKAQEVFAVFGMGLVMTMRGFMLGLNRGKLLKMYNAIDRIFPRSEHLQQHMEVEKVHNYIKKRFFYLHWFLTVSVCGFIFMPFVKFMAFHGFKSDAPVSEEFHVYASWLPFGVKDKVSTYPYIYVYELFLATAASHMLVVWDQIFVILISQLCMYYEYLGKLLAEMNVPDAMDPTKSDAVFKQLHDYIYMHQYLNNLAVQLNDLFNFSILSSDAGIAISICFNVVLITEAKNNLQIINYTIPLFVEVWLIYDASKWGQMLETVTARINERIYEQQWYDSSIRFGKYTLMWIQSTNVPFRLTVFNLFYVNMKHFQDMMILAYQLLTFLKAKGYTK
T1 sequence (B2Z9Z0 1-473 partner): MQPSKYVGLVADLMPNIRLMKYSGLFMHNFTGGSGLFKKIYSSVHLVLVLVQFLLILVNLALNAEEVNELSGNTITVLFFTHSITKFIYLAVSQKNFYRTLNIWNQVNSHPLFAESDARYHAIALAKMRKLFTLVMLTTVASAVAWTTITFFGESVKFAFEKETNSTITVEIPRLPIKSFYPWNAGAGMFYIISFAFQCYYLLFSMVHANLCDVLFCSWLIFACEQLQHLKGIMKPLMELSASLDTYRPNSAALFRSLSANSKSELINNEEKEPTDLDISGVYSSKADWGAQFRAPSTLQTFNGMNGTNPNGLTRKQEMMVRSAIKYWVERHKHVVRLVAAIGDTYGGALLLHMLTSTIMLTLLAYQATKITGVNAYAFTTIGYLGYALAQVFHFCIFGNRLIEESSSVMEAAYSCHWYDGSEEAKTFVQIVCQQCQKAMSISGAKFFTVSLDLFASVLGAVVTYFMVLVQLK
The experiment in a line: two-electrode voltage clamp, Xenopus oocytes. It counts as cell-based. The text has this:
two-electrode voltage clamp, Xenopus oocytes on BdorOR88a/BdorOrco | half the maximal effective concentration

Assay [2] has as its target T2, BdorOR63a-1/BdorOrco (Bactrocera dorsalis, UniProt A0A0G2UMW5).
T2 construct: gene OR63a-1; full-length OR63a-1 (1,248 nt, 415 aa) co-expressed with BdorOrco from pCS2+ cRNAs in Xenopus laevis oocytes; with Odorant receptor coreceptor
T2 sequence (A0A0G2UMW5 1-415): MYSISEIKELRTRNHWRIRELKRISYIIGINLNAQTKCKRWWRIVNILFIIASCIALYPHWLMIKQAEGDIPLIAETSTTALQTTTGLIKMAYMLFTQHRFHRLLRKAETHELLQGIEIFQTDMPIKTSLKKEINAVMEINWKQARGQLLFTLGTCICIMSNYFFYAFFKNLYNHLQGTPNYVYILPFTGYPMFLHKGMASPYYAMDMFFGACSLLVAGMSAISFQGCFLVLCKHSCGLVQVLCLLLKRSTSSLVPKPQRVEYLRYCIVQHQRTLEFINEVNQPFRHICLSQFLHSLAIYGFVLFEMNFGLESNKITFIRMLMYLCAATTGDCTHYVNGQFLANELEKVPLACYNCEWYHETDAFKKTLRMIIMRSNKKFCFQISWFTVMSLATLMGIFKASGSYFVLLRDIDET
T2 sequence (B2Z9Z0 1-473 partner): T1 sequence (B2Z9Z0 1-473 partner)
The experiment in a line: two-electrode voltage clamp, Xenopus oocytes. It counts as cell-based. Particulars: weak response at 1 × 10^-3 M ME; co-expressed BdorOrco; holding potential -80 mV; Ringer's pH 7.6. (In general: Two-electrode voltage clamp is typically applied to oocytes expressing channels or transporters.)

What is called EC50 is the concentration giving half of the maximal effect.

Compound `C=CCc1ccc(OC)c(OC)c1` [ME, methyl eugenol] yielded an EC50 in assay [1] of 28.3 µM. Moreover, in assay [2], the “current at 1 × 10^-3 M” value was ~ 30 nA.
